Assay results taken from the NIST ThermoML archive (doi:10.1021/je900596d).

Settings: Vibrating tube method

FC(F)=C(F)C(F)(F)F [hexafluoropropene]
Settings	mass density [kg/m3]
348.12 K, 1780.6 kPa, Fluid (supercritical or subcritical phases)	126.81
348.12 K, 1804.3 kPa, Fluid (supercritical or subcritical phases)	129.36
348.12 K, 1829.7 kPa, Fluid (supercritical or subcritical phases)	132.19
348.12 K, 1851.6 kPa, Fluid (supercritical or subcritical phases)	134.57
348.12 K, 1872.9 kPa, Fluid (supercritical or subcritical phases)	137.09
348.12 K, 1894.9 kPa, Fluid (supercritical or subcritical phases)	139.69
348.12 K, 1917.6 kPa, Fluid (supercritical or subcritical phases)	142.36
348.12 K, 1939.9 kPa, Fluid (supercritical or subcritical phases)	144.88
348.12 K, 1967.9 kPa, Fluid (supercritical or subcritical phases)	148.35
348.12 K, 1992.7 kPa, Fluid (supercritical or subcritical phases)	151.5
348.12 K, 2016.1 kPa, Fluid (supercritical or subcritical phases)	154.47
348.12 K, 2044.1 kPa, Fluid (supercritical or subcritical phases)	158.31
348.12 K, 2068.5 kPa, Fluid (supercritical or subcritical phases)	161.51
348.12 K, 2096.5 kPa, Fluid (supercritical or subcritical phases)	165.49
348.12 K, 2143.5 kPa, Fluid (supercritical or subcritical phases)	172.38
348.12 K, 2192.1 kPa, Fluid (supercritical or subcritical phases)	180.05
348.12 K, 2212.1 kPa, Fluid (supercritical or subcritical phases)	183.28
348.12 K, 2238.5 kPa, Fluid (supercritical or subcritical phases)	187.82
348.12 K, 2266 kPa, Fluid (supercritical or subcritical phases)	192.69
348.12 K, 2288.1 kPa, Fluid (supercritical or subcritical phases)	196.82
348.12 K, 2310.2 kPa, Fluid (supercritical or subcritical phases)	201.01
348.12 K, 2332.6 kPa, Fluid (supercritical or subcritical phases)	205.6
348.12 K, 2354 kPa, Fluid (supercritical or subcritical phases)	210.08
348.12 K, 2375.5 kPa, Fluid (supercritical or subcritical phases)	214.74
348.12 K, 2397.3 kPa, Fluid (supercritical or subcritical phases)	219.85
348.12 K, 2419.9 kPa, Fluid (supercritical or subcritical phases)	225.48
348.12 K, 2442.3 kPa, Fluid (supercritical or subcritical phases)	231.34
348.12 K, 2470.6 kPa, Fluid (supercritical or subcritical phases)	239.59
348.12 K, 2472.8 kPa, Fluid (supercritical or subcritical phases)	240.22
348.12 K, 2475.3 kPa, Fluid (supercritical or subcritical phases)	241.04
348.12 K, 2478 kPa, Fluid (supercritical or subcritical phases)	241.76
348.12 K, 2479.4 kPa, Fluid (supercritical or subcritical phases)	242.23
348.12 K, 2481.5 kPa, Fluid (supercritical or subcritical phases)	242.88
348.12 K, 2484.1 kPa, Fluid (supercritical or subcritical phases)	243.75
348.12 K, 2485.5 kPa, Fluid (supercritical or subcritical phases)	244.17
348.12 K, 2487.8 kPa, Fluid (supercritical or subcritical phases)	244.94
348.12 K, 2490.1 kPa, Fluid (supercritical or subcritical phases)	245.8
348.12 K, 2493.8 kPa, Fluid (supercritical or subcritical phases)	247.53
348.12 K, 2495.7 kPa, Fluid (supercritical or subcritical phases)	248.38
348.12 K, 2497.4 kPa, Fluid (supercritical or subcritical phases)	248.67
348.12 K, 2498.8 kPa, Fluid (supercritical or subcritical phases)	250.42
348.12 K, 2499.7 kPa, Fluid (supercritical or subcritical phases)	251.97
348.12 K, 2500.9 kPa, Fluid (supercritical or subcritical phases)	254.86
348.12 K, 2501.9 kPa, Fluid (supercritical or subcritical phases)	260.28
348.12 K, 2502.8 kPa, Fluid (supercritical or subcritical phases)	268.19
348.16 K, 2506.4 kPa, Liquid	959.6
348.16 K, 2507.7 kPa, Liquid	959.78
348.16 K, 2509 kPa, Liquid	959.97
348.16 K, 2510.7 kPa, Liquid	960.12
348.16 K, 2511.1 kPa, Liquid	960.28
348.16 K, 2513.5 kPa, Liquid	960.38
348.16 K, 2516.3 kPa, Liquid	960.72
348.16 K, 2517 kPa, Liquid	960.83
348.16 K, 2518.6 kPa, Liquid	961.02
348.16 K, 2520.1 kPa, Liquid	961.1
348.16 K, 2520.8 kPa, Liquid	961.16
348.16 K, 2522.6 kPa, Liquid	961.35
348.16 K, 2523.5 kPa, Liquid	961.75
348.16 K, 2525.5 kPa, Liquid	961.71
348.16 K, 2526.1 kPa, Liquid	961.8
348.16 K, 2530 kPa, Liquid	962.41
348.16 K, 2532.2 kPa, Liquid	962.81
348.16 K, 2535.5 kPa, Liquid	963.11
348.16 K, 2538.4 kPa, Liquid	963.1
348.16 K, 2542.3 kPa, Liquid	963.6
348.16 K, 2544.8 kPa, Liquid	963.72
348.16 K, 2547.3 kPa, Liquid	963.99
348.16 K, 2549.5 kPa, Liquid	964.46
348.16 K, 2554.5 kPa, Liquid	964.95
348.16 K, 2561 kPa, Liquid	965.66
348.16 K, 2568.5 kPa, Liquid	966.39
348.16 K, 2574.8 kPa, Liquid	967.01
348.16 K, 2581.7 kPa, Liquid	967.68
348.16 K, 2588.5 kPa, Liquid	968.36
348.16 K, 2595 kPa, Liquid	968.97
348.16 K, 2601.2 kPa, Liquid	969.69
348.16 K, 2614.7 kPa, Liquid	970.9
348.16 K, 2627.6 kPa, Liquid	972.33
348.16 K, 2633.8 kPa, Liquid	972.9
348.16 K, 2640.7 kPa, Liquid	973.53
348.16 K, 2654.7 kPa, Liquid	974.76
348.16 K, 2667.6 kPa, Liquid	976.02
348.16 K, 2680.1 kPa, Liquid	977.1
348.16 K, 2693.1 kPa, Liquid	978.18
348.16 K, 2706.1 kPa, Liquid	979.32
348.16 K, 2718.8 kPa, Liquid	980.44
348.16 K, 2730.9 kPa, Liquid	981.5
348.16 K, 2744.5 kPa, Liquid	982.55
348.16 K, 2756.9 kPa, Liquid	983.71
348.16 K, 2770.2 kPa, Liquid	984.59
348.16 K, 2782.7 kPa, Liquid	985.9
348.16 K, 2796.7 kPa, Liquid	986.93
348.16 K, 2809.4 kPa, Liquid	987.97
348.16 K, 2835.1 kPa, Liquid	989.69
348.16 K, 2847.5 kPa, Liquid	990.63
348.16 K, 2861.9 kPa, Liquid	991.98
348.16 K, 2875.4 kPa, Liquid	992.69
348.16 K, 2888.5 kPa, Liquid	993.69
348.16 K, 2902.4 kPa, Liquid	994.77
348.16 K, 2923.1 kPa, Liquid	996.32
348.16 K, 2943.1 kPa, Liquid	997.63
348.16 K, 2969.1 kPa, Liquid	999.28
348.16 K, 2994.8 kPa, Liquid	1001.06
348.16 K, 3015.4 kPa, Liquid	1002.63
348.16 K, 3036.5 kPa, Liquid	1004.18
348.16 K, 3061.5 kPa, Liquid	1005.54
348.16 K, 3081.9 kPa, Liquid	1006.76
348.16 K, 3102.2 kPa, Liquid	1008.02
348.16 K, 3129.1 kPa, Liquid	1009.6
348.16 K, 3135.2 kPa, Liquid	1009.88
348.16 K, 3142.1 kPa, Liquid	1010.13
348.16 K, 3154.2 kPa, Liquid	1010.88
348.16 K, 3176.2 kPa, Liquid	1012.35
348.16 K, 3202.5 kPa, Liquid	1013.88
348.16 K, 3223.6 kPa, Liquid	1015.07
348.16 K, 3244.1 kPa, Liquid	1016.31
348.16 K, 3266.6 kPa, Liquid	1017.56
348.16 K, 3287 kPa, Liquid	1018.73
348.16 K, 3310.2 kPa, Liquid	1020.02
348.16 K, 3316.2 kPa, Liquid	1020.28
348.16 K, 3323.1 kPa, Liquid	1020.54
348.16 K, 3330.6 kPa, Liquid	1020.95
348.16 K, 3337.3 kPa, Liquid	1021.47
348.16 K, 3343.7 kPa, Liquid	1021.72
348.16 K, 3351.1 kPa, Liquid	1022.04
348.16 K, 3359.3 kPa, Liquid	1022.61
348.16 K, 3365.4 kPa, Liquid	1022.8
348.16 K, 3373.8 kPa, Liquid	1023.35
348.16 K, 3380 kPa, Liquid	1023.59
348.16 K, 3386.2 kPa, Liquid	1023.86
348.16 K, 3392.5 kPa, Liquid	1024.46
348.16 K, 3400.2 kPa, Liquid	1024.64
348.16 K, 3423.6 kPa, Liquid	1025.65
